Experimental data published in ChEMBL document CHEMBL3603744, “Structure activity relationship of C-2 ether substituted 1,5-naphthyridine analogs of oxabicyclooctane-linked novel bacterial topoisomerase inhibitors as broad-spectrum antibacterial agents (Part-5)” (Bioorg Med Chem Lett, 2015).
In brackets after ≈: the same amount, converted by molar mass. Activity calls are given as the source filed them. No rule for the calls is given here.

Experiments:
Staphylococcus aureus [1] = assay: Antimicrobial activity against Staphylococcus aureus Smith by micro broth dilution or agar based method; assay type: functional
Staphylococcus aureus [2] = assay: Resistance index, ratio of MIC for quinolone-resistant Staphylococcus aureus MS5935 to MIC for quinolone-[…]; assay type: functional
Enterococcus faecium = assay: Antimicrobial activity against vancomycin-resistant Enterococcus faecium VanA by micro broth dilution or agar based method; assay type: functional
Pseudomonas aeruginosa = assay: Antimicrobial activity against Pseudomonas aeruginosa PAO1 by micro broth dilution or agar based method; assay type: functional
Staphylococcus aureus [3] = assay: Antimicrobial activity against methicillin-resistant Staphylococcus aureus OIT971 by micro broth dilution or agar based method; assay type: functional, organism-based
Streptococcus pneumoniae = assay: Antimicrobial activity against Streptococcus pneumoniae IID553 by micro broth dilution or agar based method; assay type: functional
Escherichia coli = assay: Antimicrobial activity against Escherichia coli ATCC 25922 by micro broth dilution or agar based method; assay type: functional
Acinetobacter baumannii = assay: Antimicrobial activity against Acinetobacter baumannii IID876 by micro broth dilution or agar based method; assay type: functional

SMILES	MIC (Staphylococcus aureus [1])	Ratio (Staphylococcus aureus [2])	MIC (Enterococcus faecium)	MIC (Pseudomonas aeruginosa)	growth inhibition (GI) (Staphylococcus aureus [3])	MIC (Streptococcus pneumoniae)	MIC (Escherichia coli)	MIC (Acinetobacter baumannii)
NCCCCCOc1ccc2ncc(F)c(CCC34CCC(NCc5ccc6c(n5)NC(=O)CO6)(CC3)CO4)c2n1	0.5 µg/mL (≈ 0.885 µM)	<4	8 µg/mL (≈ 14.2 µM)	16 µg/mL (≈ 28.3 µM)	Active	1 µg/mL (≈ 1.77 µM)	4 µg/mL (≈ 7.08 µM)	4 µg/mL (≈ 7.08 µM)
O=C1COc2ccc(CNC34CCC(CCc5c(F)cnc6ccc(OCCOCCO)nc56)(CC3)OC4)nc2N1	0.25 µg/mL (≈ 0.44 µM)	<4	16 µg/mL (≈ 28.2 µM)	32 µg/mL (≈ 56.4 µM)	Active	4 µg/mL (≈ 7.05 µM)	32 µg/mL (≈ 56.4 µM)	16 µg/mL (≈ 28.2 µM)
CC(C)Oc1ccc2ncc(F)c(CCC34CCC(NCc5ccc6c(n5)NC(=O)CO6)(CC3)CO4)c2n1	0.25 µg/mL (≈ 0.479 µM)	<4	8 µg/mL (≈ 15.3 µM)	32 µg/mL (≈ 61.4 µM)	Active	2 µg/mL (≈ 3.83 µM)	16 µg/mL (≈ 30.7 µM)	8 µg/mL (≈ 15.3 µM)
N#CCCCOc1ccc2ncc(F)c(CCC34CCC(NCc5ccc6c(n5)NC(=O)CO6)(CC3)CO4)c2n1	0.031 µg/mL (≈ 0.0567 µM)	–	2 µg/mL (≈ 3.66 µM)	16 µg/mL (≈ 29.3 µM)	Active	0.5 µg/mL (≈ 0.915 µM)	4 µg/mL (≈ 7.32 µM)	2 µg/mL (≈ 3.66 µM)
O=C(O)CCCOc1ccc2ncc(F)c(CCC34CCC(NCc5ccc6c(n5)NC(=O)CO6)(CC3)CO4)c2n1	0.25 µg/mL (≈ 0.442 µM)	–	4 µg/mL (≈ 7.07 µM)	16 µg/mL (≈ 28.3 µM)	Active	0.5 µg/mL (≈ 0.884 µM)	16 µg/mL (≈ 28.3 µM)	16 µg/mL (≈ 28.3 µM)
O=C1COc2ccc(CNC34CCC(CCc5c(F)cnc6ccc(OCCCCO)nc56)(CC3)OC4)nc2N1	0.031 µg/mL (≈ 0.0562 µM)	–	2 µg/mL (≈ 3.63 µM)	16 µg/mL (≈ 29 µM)	Active	0.5 µg/mL (≈ 0.906 µM)	8 µg/mL (≈ 14.5 µM)	2 µg/mL (≈ 3.63 µM)
N[C@@H]1COC[C@H]1Oc1ccc2ncc(F)c(CCC34CCC(NCc5ccc6c(n5)NC(=O)CO6)(CC3)CO4)c2n1	0.125 µg/mL (≈ 0.221 µM)	–	8 µg/mL (≈ 14.2 µM)	16 µg/mL (≈ 28.3 µM)	Active	0.5 µg/mL (≈ 0.886 µM)	4 µg/mL (≈ 7.08 µM)	1 µg/mL (≈ 1.77 µM)
N#CC1(COc2ccc3ncc(F)c(CCC45CCC(NCc6ccc7c(n6)NC(=O)CO7)(CC4)CO5)c3n2)CC1	0.063 µg/mL (≈ 0.113 µM)	–	4 µg/mL (≈ 7.16 µM)	16 µg/mL (≈ 28.6 µM)	Active	1 µg/mL (≈ 1.79 µM)	16 µg/mL (≈ 28.6 µM)	2 µg/mL (≈ 3.58 µM)
NC1(COc2ccc3ncc(F)c(CCC45CCC(NCc6ccc7c(n6)NC(=O)CO7)(CC4)CO5)c3n2)CC1	0.25 µg/mL (≈ 0.456 µM)	–	8 µg/mL (≈ 14.6 µM)	16 µg/mL (≈ 29.2 µM)	Active	1 µg/mL (≈ 1.82 µM)	2 µg/mL (≈ 3.65 µM)	1 µg/mL (≈ 1.82 µM)
O=C1COc2ccc(CNC34CCC(CCc5c(F)cnc6ccc(OCC7(CO)CC7)nc56)(CC3)OC4)nc2N1	0.063 µg/mL (≈ 0.112 µM)	–	4 µg/mL (≈ 7.1 µM)	32 µg/mL (≈ 56.8 µM)	Active	1 µg/mL (≈ 1.77 µM)	16 µg/mL (≈ 28.4 µM)	4 µg/mL (≈ 7.1 µM)
O=C1COc2ccc(CNC34CCC(CCc5c(F)cnc6ccc(OC7CCC7)nc56)(CC3)OC4)nc2N1	0.125 µg/mL (≈ 0.234 µM)	–	8 µg/mL (≈ 15 µM)	64 µg/mL (≈ 120 µM)	Active	2 µg/mL (≈ 3.75 µM)	64 µg/mL (≈ 120 µM)	8 µg/mL (≈ 15 µM)
NCC(O)COc1ccc2ncc(F)c(CCC34CCC(NCc5ccc6c(n5)NC(=O)CO6)(CC3)CO4)c2n1 (stereo not drawn)	2 µg/mL (≈ 3.62 µM)	–	16 µg/mL (≈ 29 µM)	16 µg/mL (≈ 29 µM)	Active	1 µg/mL (≈ 1.81 µM)	8 µg/mL (≈ 14.5 µM)	32 µg/mL (≈ 57.9 µM)
N[C@H]1COC[C@@H]1Oc1ccc2ncc(F)c(CCC34CCC(NCc5ccc6c(n5)NC(=O)CO6)(CC3)CO4)c2n1	0.25 µg/mL (≈ 0.443 µM)	–	16 µg/mL (≈ 28.3 µM)	32 µg/mL (≈ 56.7 µM)	Active	4 µg/mL (≈ 7.08 µM)	8 µg/mL (≈ 14.2 µM)	2 µg/mL (≈ 3.54 µM)
O=C1COc2ccc(CNC34CCC(CCc5c(F)cnc6ccc(OC(F)F)nc56)(CC3)OC4)nc2N1	0.016 µg/mL (≈ 0.0302 µM)	–	1 µg/mL (≈ 1.89 µM)	4 µg/mL (≈ 7.55 µM)	Active	0.125 µg/mL (≈ 0.236 µM)	2 µg/mL (≈ 3.78 µM)	0.5 µg/mL (≈ 0.944 µM)
O=C1COc2ccc(CNC34CCC(CCc5c(F)cnc6ccc(OC[C@@H]7C[C@@H](O)[C@@H](O)C7)nc56)(CC3)OC4)nc2N1	0.125 µg/mL (≈ 0.211 µM)	–	4 µg/mL (≈ 6.74 µM)	32 µg/mL (≈ 53.9 µM)	Active	0.5 µg/mL (≈ 0.842 µM)	16 µg/mL (≈ 27 µM)	8 µg/mL (≈ 13.5 µM)
COC(=O)C1(COc2ccc3ncc(F)c(CCC45CCC(NCc6ccc7c(n6)NC(=O)CO7)(CC4)CO5)c3n2)CC1	0.125 µg/mL (≈ 0.211 µM)	–	16 µg/mL (≈ 27 µM)	16 µg/mL (≈ 27 µM)	Active	2 µg/mL (≈ 3.38 µM)	16 µg/mL (≈ 27 µM)	8 µg/mL (≈ 13.5 µM)
N[C@@H]1CO[C@H]1COc1ccc2ncc(F)c(CCC34CCC(NCc5ccc6c(n5)NC(=O)CO6)(CC3)CO4)c2n1	0.25 µg/mL (≈ 0.443 µM)	–	8 µg/mL (≈ 14.2 µM)	16 µg/mL (≈ 28.3 µM)	Active	2 µg/mL (≈ 3.54 µM)	4 µg/mL (≈ 7.08 µM)	1 µg/mL (≈ 1.77 µM)
O=C1COc2ccc(CNC34CCC(CCc5c(F)cnc6ccc(OCc7cc(=O)c(O)c[nH]7)nc56)(CC3)OC4)nc2N1	8 µg/mL (≈ 13.3 µM)	–	64 µg/mL (≈ 106 µM)	16 µg/mL (≈ 26.6 µM)	Active	32 µg/mL (≈ 53.1 µM)	16 µg/mL (≈ 26.6 µM)	16 µg/mL (≈ 26.6 µM)
CCOC(=O)C(F)(F)CCOc1ccc2ncc(F)c(CCC34CCC(NCc5ccc6c(n5)NC(=O)CO6)(CC3)CO4)c2n1	1 µg/mL (≈ 1.59 µM)	–	64 µg/mL (≈ 102 µM)	64 µg/mL (≈ 102 µM)	Active	8 µg/mL (≈ 12.7 µM)	64 µg/mL (≈ 102 µM)	32 µg/mL (≈ 50.8 µM)
O=C1COc2ccc(CNC34CCC(CCc5c(F)cnc6ccc(OC7CC(O)CC(O)C7)nc56)(CC3)OC4)nc2N1 (stereo not drawn)	0.5 µg/mL (≈ 0.842 µM)	–	16 µg/mL (≈ 27 µM)	64 µg/mL (≈ 108 µM)	Active	0.5 µg/mL (≈ 0.842 µM)	64 µg/mL (≈ 108 µM)	32 µg/mL (≈ 53.9 µM)
O=C1COc2ccc(CNC34CCC(CCc5c(F)cnc6ccc(OCC(O)CO)nc56)(CC3)OC4)nc2N1 (stereo not drawn)	0.125 µg/mL (≈ 0.226 µM)	–	4 µg/mL (≈ 7.23 µM)	32 µg/mL (≈ 57.8 µM)	Active	1 µg/mL (≈ 1.81 µM)	16 µg/mL (≈ 28.9 µM)	4 µg/mL (≈ 7.23 µM)
NC(=O)C(F)(F)CCOc1ccc2ncc(F)c(CCC34CCC(NCc5ccc6c(n5)NC(=O)CO6)(CC3)CO4)c2n1	0.063 µg/mL (≈ 0.105 µM)	–	8 µg/mL (≈ 13.3 µM)	32 µg/mL (≈ 53.3 µM)	Active	1 µg/mL (≈ 1.67 µM)	8 µg/mL (≈ 13.3 µM)	4 µg/mL (≈ 6.66 µM)
N[C@@H]1C(=O)NC[C@H]1Oc1ccc2ncc(F)c(CCC34CCC(NCc5ccc6c(n5)NC(=O)CO6)(CC3)CO4)c2n1	16 µg/mL (≈ 27.7 µM)	–	16 µg/mL (≈ 27.7 µM)	16 µg/mL (≈ 27.7 µM)	Active	16 µg/mL (≈ 27.7 µM)	16 µg/mL (≈ 27.7 µM)	16 µg/mL (≈ 27.7 µM)
O=C1COc2ccc(CNC34CCC(CCc5c(F)cnc6ccc(OC[C@H]7C[C@@H]7C(=O)O)nc56)(CC3)OC4)nc2N1	0.25 µg/mL (≈ 0.433 µM)	–	4 µg/mL (≈ 6.93 µM)	16 µg/mL (≈ 27.7 µM)	Active	0.25 µg/mL (≈ 0.433 µM)	16 µg/mL (≈ 27.7 µM)	16 µg/mL (≈ 27.7 µM)
N[C@@H]1CO[C@@H]1COc1ccc2ncc(F)c(CCC34CCC(NCc5ccc6c(n5)NC(=O)CO6)(CC3)CO4)c2n1	0.125 µg/mL (≈ 0.221 µM)	–	8 µg/mL (≈ 14.2 µM)	32 µg/mL (≈ 56.7 µM)	Active	1 µg/mL (≈ 1.77 µM)	8 µg/mL (≈ 14.2 µM)	1 µg/mL (≈ 1.77 µM)
